Here are results for 12 molecules from patent publication US8466113B2, “4-isopropylphenyl glucitol compounds as SGLT1 inhibitors” (Taisho Pharmaceutical Co., Ltd., priority 2009, dated 2013).

As a reminder, the IC50 is the concentration needed to halve the response being measured.

Holding throughout (type): cell-based
In assay [1] the target is T1, human SGLT2 protein modified to have LeuGluSerArgGlyProVal added to the carboxy-terminal final residue (Homo sapiens, UniProt P31639).
T1 construct: expressed in transfected cells; host or cells: CHO-K1
T1 sequence (P31639 with tags, fused parts or gaps): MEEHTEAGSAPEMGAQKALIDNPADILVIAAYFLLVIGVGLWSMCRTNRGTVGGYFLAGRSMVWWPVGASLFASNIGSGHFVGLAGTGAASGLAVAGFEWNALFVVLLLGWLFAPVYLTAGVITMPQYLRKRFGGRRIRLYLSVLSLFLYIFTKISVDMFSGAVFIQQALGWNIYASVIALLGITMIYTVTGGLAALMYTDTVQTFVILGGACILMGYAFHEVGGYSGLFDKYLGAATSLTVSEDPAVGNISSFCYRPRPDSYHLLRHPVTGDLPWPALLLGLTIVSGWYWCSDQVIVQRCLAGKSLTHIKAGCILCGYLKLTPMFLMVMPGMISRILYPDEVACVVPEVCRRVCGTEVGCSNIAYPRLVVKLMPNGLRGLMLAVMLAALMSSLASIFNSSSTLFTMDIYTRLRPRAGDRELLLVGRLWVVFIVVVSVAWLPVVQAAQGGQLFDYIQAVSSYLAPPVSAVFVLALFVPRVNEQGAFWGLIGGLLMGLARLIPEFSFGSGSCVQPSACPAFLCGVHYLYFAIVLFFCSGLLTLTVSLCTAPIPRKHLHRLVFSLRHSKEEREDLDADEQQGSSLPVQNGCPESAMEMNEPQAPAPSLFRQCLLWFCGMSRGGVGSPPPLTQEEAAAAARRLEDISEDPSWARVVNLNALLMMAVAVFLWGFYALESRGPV
The assay can be described thus: Inhibition test for sodium-dependent sugar uptake in CHO-K1 cells stably expressing human SGLT2, Method A. Conditions: uptake 37° C., 60 minutes, read-out: IC50 for hSGLT2 Method A. The procedure:
(§1) (2) Creation of CHO-K1 Cells Stably Expressing Human SGLT2
Method A (described in WO2007/136116): A plasmid vector expressing human SGLT2 protein modified to have LeuGluSerArgGlyProVal added to the carboxy-terminal final residue was transfected into CHO-K1 cells using lipofectamine 2000 (Invitrogen). The cells were cultured in the presence of 500 μg/mL hygromycin B to select resistant strains, followed by screening in the system shown below using sugar uptake capacity as an indicator to obtain SGLT2-expressing cells.
(§2) (3) Inhibition Test for Sodium-Dependent Sugar Uptake in Stably Expressing Cells
(§3) The stably expressing cells prepared above were used in the following test.
(§4) Pretreatment buffer (140 mM choline chloride, 2 mM KCl, 1 mM CaCl2, 1 mM MgCl2, 10 mM HEPES/5 mM Tris, pH 7.4) was added in a volume of 200 μL to the cells stably expressing SGLT1 or 2 mL for Method A and 200 μL for Method B to the cells stably expressing SGLT2, followed by incubation for 20 minutes. The pretreatment buffer was removed and replaced by uptake buffer containing a test compound (1 mM methyl α-D-glucopyranoside (containing [^14C]methyl α-D-glucopyranoside), 140 mM NaCl, 2 mM KCl, 1 mM CaCl2, 1 mM MgCl2, 10 mM HEPES/5 mM Tris, pH 7.4) in a volume of 75 μL for SGLT1 and SGLT2 in Method B or 200 μL for SGLT2 in Method A. Uptake reaction was performed at 37° C. for 30 minutes (SGLT1) or 60 minutes (SGLT2). After the reaction, the cells were washed twice with washing buffer (10 mM methyl α-D-glucopyranoside, 140 mM choline chloride, 2 mM KCl, 1 mM CaCl2, 1 mM MgCl2, 10 mM HEPES/5 mM Tris, pH 7.4) in a volume of 200 μL for SGLT1 and SGLT2 in Method B or 2 mL for SGLT2 in Method A, and then dissolved in a 0.25 M NaOH solution (75 μL for SGLT1 and SGLT2 in Method B or 400 μL for SGLT2 in Method A). A liquid scintillator (Perkin Elmer) was added and mixed well with each sample, followed by measurement of radioactivity using a β-ray analyzer. For the control group, uptake buffer containing no test compound was prepared. Moreover, another uptake buffer containing choline chloride instead of NaCl was also prepared for basal uptake.
(§5) For determination of IC50 values, test compounds prepared at 6 appropriate concentrations were used and their concentrations required for 50% inhibition of the amount of sugar uptake (IC50 values) were calculated relative to the amount of sugar uptake in the control group (100%).

Assay [2] concerns the target T2, human SGLT1 (Homo sapiens, UniProt P13866).
T2 construct: expressed in transfected cells; host or cells: CHO-K1
T2 sequence (P13866 1-664): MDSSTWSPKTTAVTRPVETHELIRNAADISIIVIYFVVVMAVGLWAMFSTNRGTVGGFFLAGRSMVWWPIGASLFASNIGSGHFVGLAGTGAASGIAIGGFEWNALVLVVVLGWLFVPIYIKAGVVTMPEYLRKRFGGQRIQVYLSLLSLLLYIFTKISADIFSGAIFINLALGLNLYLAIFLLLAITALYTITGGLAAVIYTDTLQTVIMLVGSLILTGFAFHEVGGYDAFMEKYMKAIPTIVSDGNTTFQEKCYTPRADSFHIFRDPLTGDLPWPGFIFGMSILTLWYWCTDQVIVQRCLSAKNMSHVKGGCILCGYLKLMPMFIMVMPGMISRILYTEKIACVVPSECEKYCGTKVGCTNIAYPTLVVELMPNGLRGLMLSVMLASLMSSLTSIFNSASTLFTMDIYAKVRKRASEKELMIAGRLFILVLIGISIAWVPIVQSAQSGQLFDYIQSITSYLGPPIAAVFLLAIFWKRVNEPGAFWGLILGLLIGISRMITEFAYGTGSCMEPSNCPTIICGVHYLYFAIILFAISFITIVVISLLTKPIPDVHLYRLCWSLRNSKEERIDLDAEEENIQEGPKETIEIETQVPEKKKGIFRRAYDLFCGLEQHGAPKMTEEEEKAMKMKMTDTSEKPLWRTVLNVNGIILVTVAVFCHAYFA
The assay can be described thus: Inhibition test for sodium-dependent sugar uptake in CHO-K1 cells stably expressing human SGLT1. Conditions: [14C]methyl α-D-glucopyranoside uptake, 37° C., 30 minutes, read-out: IC50 for hSGLT1. The procedure:
(1) Creation of CHO-K1 Cells Stably Expressing Human SGLT1
A plasmid vector expressing human SGLT1 protein was transfected into CHO-K1 cells using lipofectamine 2000 (Invitrogen). The cells were cultured in the presence of 500 μg/mL geneticin to select resistant strains, followed by screening in the system shown below using sugar uptake capacity as an indicator to obtain SGLT1-expressing cells.
as §2, §3, §4, §5

Assay [3] addresses T3, human SGLT2 (Homo sapiens, UniProt P31639).
T3 construct: expressed in transfected cells; host or cells: CHO-K1
T3 sequence (P31639 1-672): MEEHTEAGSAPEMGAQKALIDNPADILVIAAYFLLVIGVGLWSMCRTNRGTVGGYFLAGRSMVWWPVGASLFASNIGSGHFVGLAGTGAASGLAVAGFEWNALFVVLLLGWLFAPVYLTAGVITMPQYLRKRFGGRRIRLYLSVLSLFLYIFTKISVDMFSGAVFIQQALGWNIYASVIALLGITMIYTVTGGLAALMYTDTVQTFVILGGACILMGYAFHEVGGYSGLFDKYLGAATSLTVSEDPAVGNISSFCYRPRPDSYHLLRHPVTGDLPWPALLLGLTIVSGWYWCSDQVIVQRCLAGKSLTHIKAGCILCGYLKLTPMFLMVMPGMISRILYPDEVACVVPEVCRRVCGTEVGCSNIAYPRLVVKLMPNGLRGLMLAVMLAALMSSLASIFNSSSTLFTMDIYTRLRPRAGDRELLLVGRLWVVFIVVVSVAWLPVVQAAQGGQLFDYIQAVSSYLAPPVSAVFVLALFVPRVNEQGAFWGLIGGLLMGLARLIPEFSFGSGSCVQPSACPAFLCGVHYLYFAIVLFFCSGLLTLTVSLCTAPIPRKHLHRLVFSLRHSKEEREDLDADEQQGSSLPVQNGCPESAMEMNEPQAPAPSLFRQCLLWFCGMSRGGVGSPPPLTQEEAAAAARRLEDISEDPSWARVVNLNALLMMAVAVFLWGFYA
The assay can be described thus: Inhibition test for sodium-dependent sugar uptake in CHO-K1 cells stably expressing human SGLT2, Method B. Conditions: uptake 37° C., 60 minutes, read-out: IC50 for hSGLT2 Method B. The method, then:
as §1
Method B: A plasmid vector expressing human SGLT2 protein was transfected into CHO-K1 cells using lipofectamine LTX (Invitrogen). The cells were cultured in the presence of 1000 μg/mL geneticin to select resistant strains, followed by screening in the system shown below using sugar uptake capacity as an indicator to obtain SGLT2-expressing cells.
as §2, §3, §4, §5

Take `COc1cc(C(C)C)c(Cc2ccc(/C=C/C(C)(C)C(=O)NC(C)(C)C(=O)NCCN(C)C)cc2C)cc1[C@@H]1O[C@H](CO)[C@@H](O)[C@H](O)[C@H]1O` [Example 7-2]: the 50% inhibitory concentration (IC50) in assay [1] worked out at 11100 nM; in assay [2], 46 nM.
Take `COc1cc(C(C)C)c(Cc2ccc(/C=C/C(C)(C)C(=O)NC(C)(C)C(=O)N3CCNCC3)cc2C)cc1[C@@H]1O[C@H](CO)[C@@H](O)[C@H](O)[C@H]1O` [Example 9-2]: the concentration for half-maximal inhibition (IC50) in assay [1] was determined as 7230 nM; in assay [3], 200 nM; in assay [2] it was 34 nM.
Consider `COc1cc(C(C)C)c(Cc2ccc(/C=C/C(C)(C)C(=O)NC(C)(C)C(=O)N3CCC(N(C)C)CC3)cc2C)cc1[C@@H]1O[C@H](CO)[C@@H](O)[C@H](O)[C@H]1O` [Example 12-2], for which the IC50 in assay [1] came out at 4950 nM; in assay [3] it was 113 nM; in assay [2], 70 nM.
In the case of `COc1cc(C(C)C)c(Cc2ccc(/C=C/C(C)(C)C(=O)NC(C)(C)C(=O)NCCN)cc2C)cc1[C@@H]1O[C@H](CO)[C@@H](O)[C@H](O)[C@H]1O` [Example 8-3], the 50% inhibitory concentration (IC50) in assay [1] worked out at 15700 nM; in assay [3], 476 nM; in assay [2], 50 nM.
For `COc1cc(C(C)C)c(Cc2ccc(/C=C/C(C)(C)C(=O)NC(C)(C)C(=O)N3CCN(C)CC3)cc2)cc1[C@@H]1O[C@H](CO)[C@@H](O)[C@H](O)[C@H]1O` [Example 17-2], in that order: 979 nM, 26 nM and 42 nM.
`Cc1cc(/C=C/C(C)(C)C(=O)NC(C)(C)C(=O)N2CCNCC2)ccc1Cc1cc([C@@H]2O[C@H](CO)[C@@H](O)[C@H](O)[C@H]2O)c(O)cc1C(C)C` [Example 2-2]: the figures for the IC50 in assay [1], in assay [3] and in assay [2] were 971 nM, 28 nM and 30 nM, respectively.
For the molecule `Cc1cc(/C=C/C(C)(C)C(=O)NC(C)(C)C(=O)N2CCN(C)CC2)ccc1Cc1cc([C@@H]2O[C@H](CO)[C@@H](O)[C@H](O)[C@H]2O)c(O)cc1C(C)C` [Example 3-2], the IC50 in assay [1] was found to be 1720 nM; in assay [3] it was 81 nM; in assay [2], 35 nM.
`CCN1CCN(C(=O)C(C)(C)NC(=O)C(C)(C)/C=C/c2ccc(Cc3cc([C@@H]4O[C@H](CO)[C@@H](O)[C@H](O)[C@H]4O)c(OC)cc3C(C)C)c(C)c2)CC1` [Example 11-2]: the figures for the IC50 in assay [1], in assay [3] and in assay [2] were 9750 nM, 546 nM and 59 nM, respectively.
Consider `COc1cc(C(C)C)c(Cc2ccc(/C=C/C(C)(C)C(=O)NC(C)(C)C(=O)N3CCN(C)CC3)cc2C)cc1[C@@H]1O[C@H](CO)[C@@H](O)[C@H](O)[C@H]1O` [Example 10-2], for which the values for the IC50 in assay [1], in assay [3] and in assay [2] were 14900 nM, 281 nM and 55 nM, respectively.
Regarding `COc1cc(C(C)C)c(Cc2ccc(/C=C/C(C)(C)C(=O)NC(C)(C)C(=O)NC3CCNCC3)cc2C)cc1[C@@H]1O[C@H](CO)[C@@H](O)[C@H](O)[C@H]1O` [Example 14-2], the half-maximal inhibitory concentration (IC50) in assay [1] was 2390 nM; in assay [3], 82 nM; in assay [2], 72 nM.
As to `CCN1CCN(C(=O)C(C)(C)NC(=O)C(C)(C)/C=C/c2ccc(Cc3cc([C@@H]4O[C@H](CO)[C@@H](O)[C@H](O)[C@H]4O)c(O)cc3C(C)C)c(C)c2)CC1` [Example 4-2], the concentration for half-maximal inhibition (IC50) in assay [1] came to 1640 nM; in assay [3], 76 nM; in assay [2] it was 46 nM.
`COc1cc(C(C)C)c(Cc2ccc(/C=C/C(C)(C)C(=O)NC(C)(C)C(=O)N3CCNCC3)cc2)cc1[C@@H]1O[C@H](CO)[C@@H](O)[C@H](O)[C@H]1O` [Example 16-2]: the 50% inhibitory concentration (IC50) was determined as 1020 nM in assay [1], 17 nM in assay [3] and 38 nM in assay [2].
